Assay results from ChEMBL document CHEMBL1201862, “PubChem BioAssay data set” (2004).
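Five concentrations, 48 hours, 96-well plates. GI50 is the concentration that inhibits growth by half.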 The source made the active and inactive calls. Rule as the data show it: active = GI50 up to about 1.1 µM and inactive = higher.

Key:
Experiment in all cases: NCI anticancer screen, dose series, 48 h
786-0 = test system: 786-0
A549 = test system: A549
CAKI-1 = test system: CAKI-1
HCC 2998 = test system: HCC 2998
HCT-15 = test system: HCT-15
HL-60 = test system: HL-60
MDA-MB-435 = test system: MDA-MB-435
MOLT-4 = test system: MOLT-4
NCI-H226 = test system: NCI-H226
NCI-H23 = test system: NCI-H23
OVCAR-8 = test system: OVCAR-8
RPMI-8226 = test system: RPMI-8226
SK-MEL-5 = test system: SK-MEL-5
SNB-75 = test system: SNB-75
UACC-257 = test system: UACC-257
UACC-62 = test system: UACC-62
MDA-MB-231 = test system: MDA-MB-231
NCI-H460 = test system: NCI-H460
SK-OV-3 = test system: SK-OV-3
U-251 = test system: U-251

| Structure (SMILES) | GI50 (786-0) | GI50 (A549) | GI50 (CAKI-1) | GI50 (HCC 2998) | GI50 (HCT-15) | GI50 (HL-60) | GI50 (MDA-MB-435) | GI50 (MOLT-4) | GI50 (NCI-H226) | GI50 (NCI-H23) | GI50 (OVCAR-8) | GI50 (RPMI-8226) | GI50 (SK-MEL-5) | GI50 (SNB-75) | GI50 (UACC-257) | GI50 (UACC-62) | GI50 (MDA-MB-231) | GI50 (NCI-H460) | GI50 (SK-OV-3) | GI50 (U-251) |
| --- | --- | --- | --- | --- | --- | --- | --- | --- | --- | --- | --- | --- | --- | --- | --- | --- | --- | --- | --- | --- |
| C(=N\c1ccc(-c2nc3ccccc3[nH]2)cc1)/c1ccco1 | > 100 µM (inactive) | > 100 µM (inactive) | > 100 µM (inactive) | 76.4 µM (inactive) | 61 µM | 24.3 µM (inactive) | 48.4 µM (inactive) | 29.3 µM (inactive) | > 100 µM (inactive) | 82.6 µM (inactive) | 34.4 µM (inactive) | 34.8 µM (inactive) | 25.5 µM (inactive) | > 100 µM (inactive) | > 100 µM (inactive) | 89.7 µM (inactive) |  |  |  |  |
| Cc1ccc(O)cc1.Cc1cccc(O)c1.Cc1ccccc1O [CRESOL] | > 100 µM (inactive) | > 100 µM (inactive) | > 100 µM (inactive) | > 100 µM (inactive) | > 100 µM | > 100 µM (inactive) | > 100 µM (inactive) | 88.7 µM (inactive) | 85.9 µM (inactive) | > 100 µM (inactive) | > 100 µM (inactive) | > 100 µM (inactive) | > 100 µM (inactive) |  | > 100 µM (inactive) | 88.3 µM (inactive) | > 100 µM (inactive) | > 100 µM (inactive) | > 100 µM (inactive) | > 100 µM (inactive) |
| Nc1ccc(Oc2ccc(C34CC5CC(C3)CC(c3ccc(Oc6ccc(N)cc6C(F)(F)F)cc3)(C5)C4)cc2)c(C(F)(F)F)c1 | 31.6 µM (inactive) | 19.1 µM (inactive) | 28.1 µM (inactive) |  | 31.8 µM | 24.2 µM (inactive) | 24.2 µM (inactive) | 35.7 µM (inactive) | 19.4 µM (inactive) | 17.7 µM (inactive) | 16 µM (inactive) |  | 22 µM (inactive) |  | 18.7 µM (inactive) | 22.1 µM (inactive) | 15.2 µM (inactive) | 18.4 µM (inactive) | 15.6 µM (inactive) | 14.5 µM (inactive) |
| CC(C)c1cc(C(C)C)c(S(=O)(=O)N/N=C2\CC3CCC2(C)C3(C)C)c(C(C)C)c1 (configuration not stated) | 28.4 µM (inactive) | 23.6 µM (inactive) | 20.2 µM (inactive) | 23.3 µM (inactive) | 46 µM |  | 34.8 µM (inactive) | 6.68 µM (inactive) | 16.9 µM (inactive) | 17.4 µM (inactive) | > 100 µM (inactive) | 3.08 µM (inactive) | 14.5 µM (inactive) |  | 4.84 µM (inactive) | 37.3 µM (inactive) | 5.74 µM (inactive) |  | 55.3 µM (inactive) | 23.3 µM (inactive) |
| O=C(O)CC1OCC=C2C[N+]3([O-])CCC45c6ccccc6NC4C1C2CC53 (configuration not stated) | > 100 µM (inactive) | > 100 µM (inactive) | > 100 µM (inactive) |  | > 100 µM | > 100 µM (inactive) | > 100 µM (inactive) | > 100 µM (inactive) | > 100 µM (inactive) | > 100 µM (inactive) | > 100 µM (inactive) | > 100 µM (inactive) | > 100 µM (inactive) |  | > 100 µM (inactive) | > 100 µM (inactive) | > 100 µM (inactive) | > 100 µM (inactive) | > 100 µM (inactive) | > 100 µM (inactive) |
| CC(C)(C)C1=C(Br)C(OC(=O)C(F)(F)F)(C(C)(C)C)OP1(=O)c1ccccc1 (configuration not stated) | 40.2 µM (inactive) | 25.6 µM (inactive) | 0.0643 µM (active) | 38.6 µM (inactive) | 31.5 µM | 24.8 µM (inactive) | 53.3 µM (inactive) |  | 40.5 µM (inactive) | 33.7 µM (inactive) | 34.7 µM (inactive) |  | 65.3 µM (inactive) | 33.4 µM (inactive) | 72.9 µM (inactive) | 28.8 µM (inactive) |  | 35.5 µM (inactive) | 39.1 µM (inactive) | 35.6 µM (inactive) |
| CC1(C)CC[C@]2(C(=O)O)[C@H](O)C[C@]3(C)C(=CC[C@@H]4[C@@]5(C)CC[C@H](OC6OC(C(=O)O)C(O)C(O)C6O)C(C)(C)[C@@H]5CC[C@]43C)[C@@H]2C1 (some centres not stated) | > 100 µM (inactive) | > 100 µM (inactive) | > 100 µM (inactive) | 27.2 µM (inactive) | 58.2 µM | 22.6 µM (inactive) | > 100 µM (inactive) | > 100 µM (inactive) | > 100 µM (inactive) | > 100 µM (inactive) | 65.6 µM (inactive) | > 100 µM (inactive) | > 100 µM (inactive) | 46.7 µM (inactive) | > 100 µM (inactive) | 23.6 µM (inactive) |  | > 100 µM (inactive) | > 100 µM (inactive) | 41 µM (inactive) |
| COc1cc2c(cc1C)NC(=O)/C2=C\c1cccnc1 | 25 µM (inactive) | 21.3 µM (inactive) | 15.4 µM (inactive) | 10 µM (inactive) | 16.4 µM | 5 µM (inactive) | 13.7 µM (inactive) | 7.98 µM (inactive) |  | 10.8 µM (inactive) | 15.5 µM (inactive) | 26.9 µM (inactive) | 15.1 µM (inactive) | 17.9 µM (inactive) | 13.1 µM (inactive) |  |  | 22.6 µM (inactive) | 16.3 µM (inactive) | 12.9 µM (inactive) |
| Cc1cn2cc(-c3cccs3)nc2s1 | > 100 µM (inactive) | > 72.1 µM (inactive) | > 100 µM (inactive) | 63.4 µM (inactive) | > 71.9 µM | 55.8 µM (inactive) | > 100 µM (inactive) | 58.7 µM (inactive) | > 24.6 µM (inactive) | > 75.5 µM (inactive) | > 100 µM (inactive) | > 100 µM (inactive) | > 61.8 µM (inactive) | > 100 µM (inactive) | > 85.9 µM (inactive) | > 100 µM (inactive) |  | > 100 µM (inactive) | > 100 µM (inactive) | > 100 µM (inactive) |
| C=C(C)C1CC/C(C)=C/CC[C@]2(C)O[C@H]2CC/C(COC(C)=O)=C\[C@@H]1O (some centres not stated) | > 50 µM (inactive) | > 50 µM (inactive) | > 50 µM (inactive) | > 50 µM (inactive) | > 50 µM | 27.4 µM (inactive) | 22.7 µM (inactive) | 16 µM (inactive) | > 50 µM (inactive) | > 50 µM (inactive) | > 50 µM (inactive) | > 50 µM (inactive) | > 50 µM (inactive) |  | > 50 µM (inactive) | > 50 µM (inactive) | > 50 µM (inactive) | 25.1 µM (inactive) | 31.1 µM (inactive) | > 50 µM (inactive) |
| CC(C)(C)c1cc(-c2cc(C(C)(C)C)[nH]n2)[nH]n1 | > 100 µM (inactive) | > 100 µM (inactive) | > 100 µM (inactive) | > 100 µM (inactive) | > 100 µM | 46.8 µM (inactive) | > 100 µM (inactive) | 96.2 µM (inactive) | > 100 µM (inactive) | > 100 µM (inactive) |  | > 100 µM (inactive) | > 100 µM (inactive) |  | > 100 µM (inactive) | > 100 µM (inactive) | > 100 µM (inactive) | > 100 µM (inactive) | > 100 µM (inactive) | > 100 µM (inactive) |
| Cc1ccc(-c2cc(-c3ccccc3)nc(N)n2)c(O)c1 | > 58.1 µM (inactive) | > 90.4 µM (inactive) | > 74.6 µM (inactive) | > 100 µM (inactive) | > 22.9 µM | 2.22 µM (inactive) | 2.86 µM (inactive) | 3.52 µM (inactive) |  | > 100 µM (inactive) | 62.4 µM (inactive) | 3.06 µM (inactive) | 6.46 µM (inactive) |  | > 100 µM (inactive) | > 78.2 µM (inactive) | > 100 µM (inactive) | > 27 µM (inactive) | > 75.7 µM (inactive) | 42.1 µM (inactive) |
| Cc1cccc2c1C(=O)/C(=C/c1ccccc1C(=O)O)C2 | > 100 µM (inactive) | > 100 µM (inactive) | > 100 µM (inactive) | > 100 µM (inactive) | > 100 µM | > 100 µM (inactive) | > 100 µM (inactive) | > 100 µM (inactive) | 98.4 µM (inactive) | > 100 µM (inactive) | > 100 µM (inactive) | 32.8 µM (inactive) | 37.5 µM (inactive) | 85.3 µM (inactive) | > 100 µM (inactive) | > 100 µM (inactive) |  | > 100 µM (inactive) |  | > 100 µM (inactive) |
| O=C(O)C(=O)/C=C\c1ccc(Cl)cc1 | > 100 µM (inactive) | > 100 µM (inactive) | > 100 µM (inactive) | > 100 µM (inactive) | > 100 µM | > 100 µM (inactive) |  | > 100 µM (inactive) | > 100 µM (inactive) | > 100 µM (inactive) | > 100 µM (inactive) | > 100 µM (inactive) | > 100 µM (inactive) | > 100 µM (inactive) | > 100 µM (inactive) | > 100 µM (inactive) |  | > 100 µM (inactive) | > 100 µM (inactive) | 66.4 µM (inactive) |
| CC(O)CN1c2ccccc2Sc2ccccc21 (configuration not stated) | > 100 µM (inactive) | > 100 µM (inactive) | > 100 µM (inactive) | > 100 µM (inactive) | > 100 µM |  | > 100 µM (inactive) | > 100 µM (inactive) | > 100 µM (inactive) | > 100 µM (inactive) | > 100 µM (inactive) |  | > 100 µM (inactive) |  | > 100 µM (inactive) | > 100 µM (inactive) | > 100 µM (inactive) | > 100 µM (inactive) | > 100 µM (inactive) | > 100 µM (inactive) |
